The target in assay [1] is T1, Full length human recombinant HDAC11 (Homo sapiens, UniProt Q96DB2).
T1 construct: Full length human recombinant HDAC6 and HDAC11 proteins were expressed in baculoviral system
T1 sequence (Q96DB2 1-347): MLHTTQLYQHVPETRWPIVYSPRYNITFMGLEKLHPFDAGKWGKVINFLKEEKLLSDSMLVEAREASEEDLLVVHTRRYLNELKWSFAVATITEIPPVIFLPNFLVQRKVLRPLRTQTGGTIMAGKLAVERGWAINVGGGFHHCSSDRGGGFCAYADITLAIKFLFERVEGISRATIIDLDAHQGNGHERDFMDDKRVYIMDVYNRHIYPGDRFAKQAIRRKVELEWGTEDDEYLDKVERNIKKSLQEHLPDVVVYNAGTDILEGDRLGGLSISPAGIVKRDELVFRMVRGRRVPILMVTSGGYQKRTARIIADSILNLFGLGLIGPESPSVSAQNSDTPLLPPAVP
Briefly: In vitro histone deacetylase assay, enzymatic HDAC11 (electrophoretic mobility shift assay). The settings on record: 10 nM HDAC11; 2 μM peptide substrate FAM-RHKK(tri-fluor-Ac)—NH2; 25° C.; 12 concentrations; read-out: HDAC11 Activity Range (IC50). Format: biochemical. As to the method: (§1) The enzymatic HDAC6 and HDAC11 assays were performed using electrophoretic mobility shift assay. Full length human recombinant HDAC6 and HDAC11 proteins were expressed in baculoviral system and purified by affinity chromatography. The enzymatic reactions were assembled in 384 well plates in a total volume of 25 μL in a reaction buffer composing: 100 mM HEPES, pH 7.5, 25 mM KCl, 0.1% bovine serum albumin, 0.01% Triton X-100, 1% DMSO (from compounds) 2 μM of the fluorescently labeled peptide substrate and enzyme. The enzymes were added at a final concentration of 1 nM for HDAC6, and 10 nM for HDAC11. The peptide substrate FAM-RHKK(Ac)—NH2 was used for HDAC6, and FAM-RHKK(tri-fluor-Ac)—NH2 for HDAC11. The compounds were tested at 12 concentrations spaced by 3× dilution intervals. Negative control samples (0%-inhibition in the absence of inhibitor) and positive control samples (100%-inhibition) were assembled in replicates of four in each assay plate. The reactions were incubated at 25° C. and quenched by the addition of 45 μL of termination buffer (100 mM HEPES, pH 7.5, 0.01% Triton X-100, 0.05% SDS).
(§2) The terminated assay plates were analyzed on LabChip® 3000 microfluidic electrophoresis instrument (Perkin Elmer/Caliper Life Sciences). The fluorescence intensity of the electrophoretically separated de-acetylated product and substrate peptide was measured. Activity in each sample was determined as the product to sum ratio (PSR): P/(S+P), where P is the peak height of the product peptide and S is the peak height of the substrate peptide. Percent inhibition (Pinh) is determined using following equation:
(§3) Pinh=(PSR0%−PSRinh)/(PSR0%−PSR100%)*100, where PSRinh is the product sum ratio in the presence of inhibitor, PSR0% is the average product sum ration in the absence of inhibitor and PSR100% is the average product sum ratio in 100%-inhibition control samples. The IC50 values of inhibitors were determined by fitting the %-inhibition curves with 4 parameter dose-response model using XLfit 4 software.
(§4) As set forth in Table-26 and Table-27, below, IC5o values are defined as follows: IC50≦0.1 μM (+++); IC50>0.1 μM and ≦0.5 μM (++); IC50>0.5 μM (+).

Assay [2] deals with T2, Full length human recombinant HDAC6 (Homo sapiens, UniProt Q9UBN7).
T2 construct: Full length human recombinant HDAC6 and HDAC11 proteins were expressed in baculoviral system
T2 sequence (Q9UBN7 1-1215): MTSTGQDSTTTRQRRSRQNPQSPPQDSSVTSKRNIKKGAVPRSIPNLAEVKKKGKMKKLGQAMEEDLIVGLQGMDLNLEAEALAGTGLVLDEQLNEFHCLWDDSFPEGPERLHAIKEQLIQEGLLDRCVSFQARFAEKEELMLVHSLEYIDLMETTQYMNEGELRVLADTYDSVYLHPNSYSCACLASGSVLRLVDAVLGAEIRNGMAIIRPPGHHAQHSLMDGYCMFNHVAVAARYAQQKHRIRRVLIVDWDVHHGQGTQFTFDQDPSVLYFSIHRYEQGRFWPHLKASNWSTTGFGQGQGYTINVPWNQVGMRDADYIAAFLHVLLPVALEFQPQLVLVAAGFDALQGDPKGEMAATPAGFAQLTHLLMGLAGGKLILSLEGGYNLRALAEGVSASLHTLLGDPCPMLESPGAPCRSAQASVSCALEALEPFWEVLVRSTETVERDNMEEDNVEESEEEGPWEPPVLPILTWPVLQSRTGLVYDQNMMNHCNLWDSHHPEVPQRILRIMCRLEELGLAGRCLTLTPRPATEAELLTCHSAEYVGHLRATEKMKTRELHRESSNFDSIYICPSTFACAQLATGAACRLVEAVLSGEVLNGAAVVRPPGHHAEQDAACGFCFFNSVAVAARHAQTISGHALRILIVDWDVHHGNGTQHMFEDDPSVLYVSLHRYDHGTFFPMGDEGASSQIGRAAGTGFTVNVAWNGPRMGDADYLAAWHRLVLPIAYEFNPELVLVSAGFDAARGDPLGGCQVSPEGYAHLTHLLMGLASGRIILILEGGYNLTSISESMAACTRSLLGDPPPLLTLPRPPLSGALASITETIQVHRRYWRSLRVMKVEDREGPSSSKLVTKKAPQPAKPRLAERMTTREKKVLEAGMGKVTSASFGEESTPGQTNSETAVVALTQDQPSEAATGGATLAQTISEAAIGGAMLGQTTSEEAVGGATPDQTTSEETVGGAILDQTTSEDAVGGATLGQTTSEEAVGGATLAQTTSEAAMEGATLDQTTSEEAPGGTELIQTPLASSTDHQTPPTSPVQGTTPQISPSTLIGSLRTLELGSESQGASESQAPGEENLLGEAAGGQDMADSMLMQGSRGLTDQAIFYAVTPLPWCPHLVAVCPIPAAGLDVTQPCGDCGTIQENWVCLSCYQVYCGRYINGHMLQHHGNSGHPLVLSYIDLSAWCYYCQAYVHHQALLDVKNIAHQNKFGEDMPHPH
Briefly: In vitro histone deacetylase assay, enzymatic HDAC6 (electrophoretic mobility shift assay). To be noted: 1 nM HDAC6; 2 μM peptide substrate FAM-RHKK(Ac)—NH2; 25° C.; 12 concentrations; read-out: HDAC6 Activity Range (IC50). Format: biochemical. The procedure: as §1, §2, §3, §4
A general note: A gel shift assay detects complexes by their altered migration in electrophoresis.

A word on the IC50: it is the midpoint of a concentration-inhibition curve. `CN1CC[C@]2(CCc3ccc(C(=O)NO)cc3C2)C1` [Compound I-19, (R)—N-hydroxy-1′-methyl-3,4-dihydro-1H-spiro[naphthalene-2,3′-pyrrolidine]-7-carboxamide]: the IC50 was greater than 500 nM in assay [1] and 100 to 500 nM in assay [2]. Turning to `O=C(NO)c1ccc2c(c1)C[C@]1(CC2)CCN(Cc2ccc(C(F)(F)F)c(F)c2)C1=O` [Compound I-125, (R)-1′-(3-fluoro-4-(trifluoromethyl)benzyl)-N-hydroxy-2′-oxo-3,4-dihydro-1H-spiro[naphthalene-2,3′-pyrrolidine]-7-carboxamide], the IC50 is 100 to 500 nM in assay [1] and no more than 100 nM in assay [2]. As for `CS(=O)(=O)c1ccc(CN2CC[C@]3(CCc4ccc(C(=O)NO)cc4C3)C2=O)cc1` [Compound I-51, (R)—N-hydroxy-1′-(4-(methylsulfonyl)benzyl)-2′-oxo-3,4-dihydro-1H-spiro[naphthalene-2,3′-pyrrolidine]-7-carboxamide], the IC50 in assay [1] and in assay [2] was no more than 100 nM throughout. For the molecule `COc1ccc(C(=O)N2CCC3(CCc4ccc(C(=O)NO)cc4O3)CC2)cc1` [II-1, N-hydroxy-1′-(4-methoxybenzoyl)spiro[chroman-2,4′-piperidine]-7-carboxamide], the IC50 in assay [1] was greater than 500 nM; in assay [2] it was no more than 100 nM. The matching figures for `O=C(NO)c1ccc2c(c1)C[C@@]1(CC2)CCN(CC2CCOCC2)C1=O` [Compound I-57, (S)—N-hydroxy-2′-oxo-1′-((tetrahydro-2H-pyran-4-yl)methyl)-3,4-dihydro-1H-spiro[naphthalene-2,3′-pyrrolidine]-7-carboxamide]: greater than 500 nM and no more than 100 nM.

As for `Cc1nn(C)cc1N1CC[C@]2(CCc3ccc(C(=O)NO)cc3C2)C1=O` [Compound I-109, (R)-1′-(1,3-dimethyl-1H-pyrazol-4-yl)-N-hydroxy-2′-oxo-3,4-dihydro-1H-spiro[naphthalene-2,3′-pyrrolidine]-7-carboxamide], the IC50 in assay [1] is greater than 500 nM; in assay [2], no more than 100 nM.

For `O=C(NO)c1ccc2c(c1)C[C@@]1(CC2)CC(=O)N(C2CCC2)C1` [Compound I-151, (S)-1′-cyclobutyl-N-hydroxy-5′-oxo-3,4-dihydro-1H-spiro[naphthalene-2,3′-pyrrolidine]-7-carboxamide], the half-inhibitory concentration (IC50) in assay [2] was no more than 100 nM. `O=C(NO)c1ccc2c(c1)C[C@@]1(CC2)CCN(c2ccc(Cl)c(Cl)c2)C1=O` [Compound I-112, (S)-1′-(3,4-dichlorophenyl)-N-hydroxy-2′-oxo-3,4-dihydro-1H-spiro[naphthalene-2,3′-pyrrolidine]-7-carboxamide]: the figures for the concentration for half-maximal inhibition (IC50) in assay [1] and in assay [2] were greater than 500 nM and no more than 100 nM, respectively. Taken in the same sequence, the figures for `O=C(NO)c1ccc2c(c1)C[C@]1(CC2)CCN(c2cccnc2)C1=O` [Compound I-29, (R)—N-hydroxy-2′-oxo-1′-(pyridin-3-yl)-3,4-dihydro-1H-spiro[naphthalene-2,3′-pyrrolidine]-7-carboxamide] were greater than 500 nM and no more than 100 nM.

As for `O=C(NO)c1ccc2c(c1)CC1(CC2)CCN(c2ccncc2)C1=O` (centres unmarked) [Compound I-30, N-hydroxy-2′-oxo-1′-(pyridin-4-yl)-3,4-dihydro-1H-spiro[naphthalene-2,3′-pyrrolidine]-7-carboxamide], the IC50 in assay [1] was greater than 500 nM; in assay [2] it was no more than 100 nM.

As for `O=C(NO)c1ccc2c(c1)C[C@@]1(CC2)CCN(Cc2cccnc2)C1=O` [Compound I-70, (S)—N-hydroxy-2′-oxo-1′-(pyridin-3-ylmethyl)-3,4-dihydro-1H-spiro[naphthalene-2,3′-pyrrolidine]-7-carboxamide], the 50% inhibitory concentration (IC50) is greater than 500 nM in assay [1] and no more than 100 nM in assay [2]. The matching figures for `O=C(NO)c1ccc2c(c1)C[C@]1(CC2)CCN(Cc2ccccn2)C1=O` [Compound I-98, (R)—N-hydroxy-2′-oxo-1′-(pyridin-2-ylmethyl)-3,4-dihydro-1H-spiro[naphthalene-2,3′-pyrrolidine]-7-carboxamide]: greater than 500 nM and no more than 100 nM. The matching figures for `CN1CC[C@@]2(CCc3ccc(C(=O)NO)cc3C2)C1` [Compound I-18, (S)—N-hydroxy-1′-methyl-3,4-dihydro-1H-spiro[naphthalene-2,3′-pyrrolidine]-7-carboxamide]: greater than 500 nM and 100 to 500 nM. On to `COc1ccc(CN2CC[C@]3(CCc4ccc(C(=O)NO)cc4C3)C2=O)cc1` [Compound I-102, (R)—N-hydroxy-1′-(4-methoxybenzyl)-2′-oxo-3,4-dihydro-1H-spiro[naphthalene-2,3′-pyrrolidine]-7-carboxamide], for which the 50% inhibitory concentration (IC50) in assay [1] and in assay [2] was no more than 100 nM throughout. Take `CN1CC[C@]2(CCc3ccc(C(=O)NO)cc3C2)C1=O` [Compound I-120, (R)—N-hydroxy-1′-methyl-2′-oxo-3,4-dihydro-1H-spiro[naphthalene-2,3′-pyrrolidine]-7-carboxamide]: the half-maximal inhibitory concentration (IC50) in assay [1] is greater than 500 nM; in assay [2] it was no more than 100 nM. Regarding `O=C(NO)c1ccc2c(c1)C[C@]1(CC2)CC(=O)N(C2CCC2)C1` [Compound I-150, (R)-1′-cyclobutyl-N-hydroxy-5′-oxo-3,4-dihydro-1H-spiro[naphthalene-2,3′-pyrrolidine]-7-carboxamide], the IC50 in assay [2] was no more than 100 nM. The same measure, in the same setting: the value for `O=C(NO)c1ccc2c(c1)C[C@]1(CC2)CC(=O)N(C2CCCC2)C1` [Compound I-152, (R)-1′-cyclopentyl-N-hydroxy-5′-oxo-3,4-dihydro-1H-spiro[naphthalene-2,3′-pyrrolidine]-7-carboxamide] was no more than 100 nM; that for `O=C(NO)c1ccc2c(c1)C[C@@]1(CC2)CC(=O)N(C2CCCC2)C1` [Compound I-153, (S)-1′-cyclopentyl-N-hydroxy-5′-oxo-3,4-dihydro-1H-spiro[naphthalene-2,3′-pyrrolidine]-7-carboxamide] was no more than 100 nM.
